Assays:
Format in all cases: in vivo
[1] = system: Alopecurus myosuroides (ALOMY); test: Example B pre-emergence herbicidal test, ALOMY; conditions: Alopecurus myosuroides, 312 h, rate 250 g/ha, evaluated after 13 days, 100=total damage to plant, 0=no damage to plant
Method in brief: (§1)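 Plants were rated 13 days after treatment, 0 = no damage to 100 = total damage. They were grown in a glasshouse at 24/16 °C, 14 h light, 65% humidity and watered twice daily. Pre-emergence spray was applied one day after sowing, formulated in acetone/water 50:50 with 0.5% Tween 20.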

Lolium perenne (LOLPE) [2] = test: Example B pre-emergence herbicidal test, LOLPE; conditions: Lolium perenne, 312 h, rate 250 g/ha, evaluated after 13 days, 100=total damage to plant, 0=no damage to plant
Method in brief: as §1

[3] = system: Echinochloa crus-galli (ECHCG); test: Example B post-emergence herbicidal test, ECHCG; conditions: Echinochloa crus-galli, 312 h, rate 250 g/ha, evaluated after 13 days, scale 0-100, read-out: Post-emergence activity ECHCG (100=total damage to plant; 0=no damage to plant)
Method in brief: (§2)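 Plants grown from seed in standard soil for 8 days in a glasshouse (24/16 °C day/night, 14 h light, 65% humidity), then sprayed with an aqueous solution from the active ingredient formulated in acetone/water (50:50) with 0.5% Tween 20. Damage scored after 13 days, 0 (none) to 100 (total).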

[4] = system: Echinochloa crus-galli (ECHCG); test: Example B pre-emergence herbicidal test, ECHCG; conditions: Echinochloa crus-galli, 312 h, rate 250 g/ha, evaluated after 13 days, 100=total damage to plant, 0=no damage to plant
Method in brief: as §1

[5] = system: Alopecurus myosuroides (ALOMY); test: Example B post-emergence herbicidal test, ALOMY; conditions: Alopecurus myosuroides, 312 h, rate 250 g/ha, evaluated after 13 days, scale 0-100, read-out: Post-emergence activity ALOMY (100=total damage to plant; 0=no damage to plant)
Method in brief: as §2

Avena fatua (AVEFA) [6] = test: Example B pre-emergence herbicidal test, AVEFA; conditions: Avena fatua, 312 h, rate 250 g/ha, evaluated after 13 days, 100=total damage to plant, 0=no damage to plant
Method in brief: as §1

Avena fatua (AVEFA) [7] = test: Example B post-emergence herbicidal test, AVEFA; conditions: Avena fatua, 312 h, rate 250 g/ha, evaluated after 13 days, scale 0-100, read-out: Post-emergence activity AVEFA (100=total damage to plant; 0=no damage to plant)
Method in brief: as §2

Lolium perenne (LOLPE) [8] = test: Example B post-emergence herbicidal test, LOLPE; conditions: Lolium perenne, 312 h, rate 250 g/ha, evaluated after 13 days, scale 0-100, read-out: Post-emergence activity LOLPE (100=total damage to plant; 0=no damage to plant)
Method in brief: as §2

SMILES	pest or weed control at 250 g/ha [1]	pest or weed control at 250 g/ha (Lolium perenne (LOLPE) [2])	pest or weed control at 250 g/ha [3]	pest or weed control at 250 g/ha [4]	pest or weed control at 250 g/ha [5]	pest or weed control at 250 g/ha (Avena fatua (AVEFA) [6])	pest or weed control at 250 g/ha (Avena fatua (AVEFA) [7])	pest or weed control at 250 g/ha (Lolium perenne (LOLPE) [8])
Cc1cc(C)c(C2C(=O)C(C)C(CC3CCOC3)C2=O)c(C)c1 (centres unmarked) [Compound T29]	70%	100%	80%	90%	70%	50%	60%	90%
Cc1cc(C)c(C2C(=O)CC(C)(CC3CCOC3)C2=O)c(C)c1 (centres unmarked) [Compound T30]	60%	90%	80%	80%	80%	30%	70%	80%
Cc1cc(C)c(C2C(=O)C/C(=C\C3CCN(S(C)(=O)=O)C3)C2=O)c(C)c1 (centres unmarked) [Compound T31]	80%	90%	80%	80%	90%	90%	90%	70%
COC(=O)N1CCC(/C=C2\CC(=O)C(c3c(C)cc(C)cc3C)C2=O)C1 (centres unmarked) [Compound T32]	70%	100%	90%	100%	90%	90%	90%	90%
CCSC(=O)N1CCC(/C=C2\CC(=O)C(c3c(C)cc(C)cc3C)C2=O)C1 (centres unmarked) [Compound T33]	60%	90%	60%	90%	60%	50%	70%	60%
Cc1cc(C)c(C2C(=O)C/C(=C\C3CCN(C(=O)c4ccccc4)C3)C2=O)c(C)c1 (centres unmarked) [Compound T34]	70%	90%	100%	100%	90%	70%	100%	90%
CC(=O)N1CCC(CC2CC(=O)C(c3c(C)cc(C)cc3C)C2=O)C1 (centres unmarked) [Compound T35]	30%	70%	70%	40%	70%	10%	60%	70%
Cc1cc(C)c(C2C(=O)CC(CC3CCN(S(C)(=O)=O)C3)C2=O)c(C)c1 (centres unmarked) [Compound T36]	90%	90%	90%	100%	80%	90%	90%	80%
Cc1cc(C)c(C2C(=O)CC(C(O)C3CCOC(C)(C)C3)C2=O)c(C)c1 (centres unmarked) [Compound T38]	90%	70%	100%	100%	100%	40%	100%	100%
Cc1cc(C)c(C2C(=O)C/C(=C\C3CCN(C(=O)OCc4ccccc4)CC3)C2=O)c(C)c1 (centres unmarked) [Compound T42]	0%	0%	30%	20%	0%	0%	0%	20%
COC(=O)N1CCC(CC2CC(=O)C(c3c(C)cc(C)cc3C)C2=O)C1 (centres unmarked) [Compound T43]	80%	100%	80%	100%	90%	100%	90%	100%
CCC1CCC(CC2CC(=O)C(c3c(C)cc(C)cc3C)C2=O)O1 (centres unmarked) [Compound T44]	90%	100%	80%	60%	60%	20%	40%	70%
CC(=O)N1CCCCC1/C=C1\CC(=O)C(c2c(C)cc(C)cc2C)C1=O (centres unmarked) [Compound T46]	50%	10%	60%	10%	60%	10%	50%	40%
Cc1cc(C)c(C2C(=O)C/C(=C\C3CCCCN3S(C)(=O)=O)C2=O)c(C)c1 (centres unmarked) [Compound T47]	20%	60%	60%	40%	30%	50%	50%	30%
CC(=O)N1CCCCC1CC1CC(=O)C(c2c(C)cc(C)cc2C)C1=O (centres unmarked) [Compound T48]	90%	90%	100%	100%	90%	90%	90%	70%
CCc1cc(C)cc(C)c1C1C(=O)CC(CC2CCOCC2)C1=O (centres unmarked) [Compound T50]	100%	100%	100%	100%	100%	100%	100%	100%
Cc1cc(C)c(C2C(=O)CC(CC3CCCCN3S(C)(=O)=O)C2=O)c(C)c1 (centres unmarked) [Compound T51]	80%	100%	70%	80%	70%	90%	80%	60%
Cc1cccc(C)c1C1C(=O)CC(CC2CCOCC2)C1=O (centres unmarked) [Compound T52]	100%	100%	100%	80%	90%	80%	80%	90%
Cc1cc(C)c(C2C(=O)C/C(=C\C3CCN(C(=O)OC(C)(C)C)CC3)C2=O)c(C)c1 (centres unmarked) [Compound T54]	80%	100%	80%	100%	80%	50%	80%	70%

From patent US9096560B2, “5-heterocyclylalkyl-3-hydroxy-2-phenylcyclopent-2-enones as herbicides” (Syngenta Limited, priority 2008, dated 2015)
